Measured values as given in the NIST ThermoML archive (doi:10.1016/j.jct.2011.11.032).
Numbers after ± are expanded uncertainties.

Test: molar enthalpy of vaporization or sublimation
Conditions: 298.15 K; Liquid; Static calorimetry
Compound `COc1ccccn1` [2-methoxypyridine] has a molar enthalpy of 10.8 ± 0.311 kcal/mol. For `COc1ccncc1` [4-methoxypyridine], the molar enthalpy was 13.7 ± 0.311 kcal/mol. In the case of `COc1cccc(OC)n1` [2,6-dimethoxypyridine], the molar enthalpy is reported as 12.9 ± 0.239 kcal/mol.
